These results are taken from ChEMBL document CHEMBL1201862, “PubChem BioAssay data set” (2004).

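Grown in 96-well plates, cells were treated for 48 hours with each compound at five concentrations. Insufficient inhibition: endpoint recorded as highest concentration tested. The concentration for 50% growth inhibition is given as GI50.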 Calls of active or inactive are those of the source. Cut-off read from the data, not from the text of the source: active = GI50 up to about 1.1 µM and inactive = higher.

Test systems include 786-0; ACHN; CCRF-CEM; COLO 205; EKVX; HCT-116; NCI-H226; NCI-H23; NCI-H460; NCI-H522; SK-MEL-5; SN12C; SR; TK-10; UO-31; A498; OVCAR-5.
Holding throughout (assay): growth of human tumour cells (NCI), 48 h

For `COc1ccc(-c2cc(O)c3cc4c(cc3n2)OCO4)cc1OC`, the GI50 in the assay on 786-0, in the assay with ACHN, with CCRF-CEM, with COLO 205, with EKVX and in the assay with HCT-116 was > 100 µM (inactive) in each case. Also, the GI50 with NCI-H226 is > 100 µM (inactive); in the assay with NCI-H23 it was > 100 µM (inactive); in the assay with NCI-H460 it was > 100 µM (inactive); in the assay on NCI-H522, > 100 µM (inactive); in the assay with SK-MEL-5, 65.6 µM (inactive); in the assay on SN12C it was > 100 µM (inactive). Further, the GI50 in the assay on SR was 45 µM (inactive); in the assay on TK-10, > 100 µM (inactive); in the assay on UO-31 it was > 100 µM (inactive).

In the case of `CC(=O)Nc1ccc(/C=C(\NC(=O)c2ccccc2)c2nc3ccc4c(c3[nH]2)C(=O)c2ccccc2C4=O)cc1`, the GI50 was 35.6 µM (inactive) in the assay with 786-0; 7.78 µM (inactive) in the assay on A498; 0.904 µM (active) in the assay on CCRF-CEM; 57.8 µM (inactive) with COLO 205; 24.3 µM (inactive) with EKVX; 12.2 µM (inactive) in the assay on HCT-116. Further, the GI50 in the assay with NCI-H226 was > 100 µM (inactive); in the assay on NCI-H23 it was 21.6 µM (inactive); in the assay with NCI-H522, 4.9 µM (inactive); with OVCAR-5 it was > 100 µM (inactive); in the assay with SK-MEL-5 it was 21.8 µM (inactive); in the assay on SN12C it was 25.4 µM (inactive). Also, the values for the GI50 with TK-10 and in the assay with UO-31 were 17.5 µM (inactive) and 1.59 µM (inactive), respectively.

For `N#Cc1c(-c2ccccc2)cc(-c2cccs2)c(C#N)c1N`, the GI50 with 786-0 is > 100 µM (inactive); with A498 it was > 100 µM (inactive); in the assay on ACHN, > 100 µM (inactive); with CCRF-CEM, > 100 µM (inactive); in the assay with COLO 205 it was > 10 µM (inactive); in the assay with EKVX, > 100 µM (inactive). Also, the GI50 in the assay with HCT-116, in the assay with NCI-H460, in the assay on NCI-H522, with SK-MEL-5, in the assay on SN12C and with TK-10 was > 100 µM (inactive) throughout.

In the case of `CCc1ccccc1NC(=O)C(=O)C1C(=O)N(c2ccccc2)N=C1N` (stereo not given), the GI50 in the assay with 786-0, in the assay with A498, in the assay on ACHN, in the assay on EKVX, in the assay with HCT-116 and in the assay on NCI-H226 was > 100 µM (inactive) throughout. In addition, the GI50 in the assay with NCI-H23, in the assay with NCI-H460, in the assay on OVCAR-5, with SK-MEL-5, in the assay on SN12C and with TK-10 was > 100 µM (inactive) throughout. The GI50 in the assay with UO-31 was > 100 µM (inactive).

As for `COc1ccc(NC(=O)CSc2nnc(-c3ccc(NC(C)=O)cc3)o2)cc1`, the GI50 in the assay on 786-0 is 17.2 µM (inactive); in the assay with A498, 15.5 µM (inactive); in the assay on ACHN, 16.7 µM (inactive); in the assay with CCRF-CEM, 9.55 µM (inactive); with COLO 205, 19.4 µM (inactive); in the assay on EKVX, 23 µM (inactive). For the same molecule, the GI50 with HCT-116 was 14.6 µM (inactive); with NCI-H226, 24.3 µM (inactive); with NCI-H23, 10.7 µM (inactive); in the assay on NCI-H460 it was 15.5 µM (inactive); in the assay on NCI-H522, 14.5 µM (inactive); in the assay on OVCAR-5 it was 14.4 µM (inactive). Also, the GI50 with SK-MEL-5 was 13.2 µM (inactive); in the assay on SN12C, 20 µM (inactive); in the assay with TK-10 it was 21.7 µM (inactive); in the assay with UO-31 it was 17.7 µM (inactive).

As to `CC(=O)NC(CCCCNC(=O)N(CCCl)N=O)C(=O)NCc1ccccc1` (stereo not given), the GI50 in the assay with 786-0 was 35.9 µM (inactive); in the assay with ACHN, > 100 µM (inactive); in the assay with CCRF-CEM, > 100 µM (inactive); in the assay with COLO 205, > 100 µM (inactive); with EKVX it was > 100 µM (inactive); in the assay on HCT-116, > 100 µM (inactive). Besides, the GI50 was > 100 µM (inactive) with NCI-H226; > 100 µM (inactive) with NCI-H23; 28.6 µM (inactive) in the assay with NCI-H460; > 100 µM (inactive) in the assay on NCI-H522; > 100 µM (inactive) in the assay on SN12C; 91.6 µM (inactive) in the assay with SR. Moreover, in the assay with UO-31, the GI50 was > 100 µM (inactive).

On to `CC(=O)CN(Cc1cc(C)c2c(c1)c1ccccc1n2Cc1ccccc1)S(=O)(=O)c1ccc(C)cc1`, for which the GI50 with 786-0, in the assay with CCRF-CEM, with COLO 205, in the assay on EKVX, with HCT-116 and in the assay on NCI-H226 was > 100 µM (inactive) each time. Moreover, the GI50 was > 100 µM (inactive) in the assay with NCI-H23; > 100 µM (inactive) in the assay with NCI-H522; > 100 µM (inactive) with SK-MEL-5; > 100 µM (inactive) in the assay with SR; > 100 µM (inactive) in the assay on TK-10; 57.7 µM (inactive) in the assay with UO-31.

Turning to `COc1cc2cccc(NC(=O)c3cc(OC)c(OC)c(OC)c3Br)c2cc1OC`, the GI50 in the assay with 786-0 is 29.2 µM (inactive); in the assay with A498, 30.5 µM (inactive); with ACHN, 11.5 µM (inactive); with CCRF-CEM it was 4.56 µM (inactive); in the assay with COLO 205, 12.9 µM (inactive); with EKVX, 21.1 µM (inactive). The GI50 with HCT-116 is 11.9 µM (inactive); in the assay on NCI-H23, 8 µM (inactive); with NCI-H460 it was 12.5 µM (inactive); in the assay on NCI-H522 it was 11.8 µM (inactive); in the assay with OVCAR-5 it was 10 µM (inactive); with SK-MEL-5 it was 3.24 µM (inactive). Besides, the GI50 in the assay on SN12C is 16.6 µM (inactive); in the assay with TK-10, 29.2 µM (inactive); with UO-31 it was 5.9 µM (inactive).

With `COc1cc2c(cc1O)[C@H](C)C(c1ccc(OC)c(OC)c1)O2` (stereo not given in full), the GI50 is 11.3 µM (inactive) in the assay on 786-0; 22.6 µM (inactive) with A498; 10.6 µM (inactive) with ACHN; 6.21 µM (inactive) with CCRF-CEM; 20.4 µM (inactive) in the assay with COLO 205; 17.5 µM (inactive) in the assay with EKVX. Further, the GI50 with HCT-116 was 3.6 µM (inactive); in the assay with NCI-H226, 12.4 µM (inactive); with NCI-H23 it was 10.6 µM (inactive); with NCI-H460, 2.13 µM (inactive); in the assay on NCI-H522, 9.23 µM (inactive); with OVCAR-5 it was 45.6 µM (inactive). Moreover, the GI50 in the assay with SK-MEL-5 is 6.01 µM (inactive); in the assay on TK-10, 15.7 µM (inactive); with UO-31 it was 5.69 µM (inactive).

As for `COc1ccccc1CCc1cc(OC)c(OC)c(OC)c1`, the GI50 in the assay with 786-0 is 74.3 µM (inactive); with A498, 57.9 µM (inactive); in the assay on ACHN, 51.9 µM (inactive); with CCRF-CEM, 31.8 µM (inactive); in the assay with COLO 205, 42.2 µM (inactive); with EKVX, 49.3 µM (inactive). Further, the GI50 in the assay on HCT-116 is 37.1 µM (inactive); with NCI-H226, 39.8 µM (inactive); in the assay on NCI-H460, 44.1 µM (inactive); in the assay with NCI-H522, 26.8 µM (inactive); in the assay with OVCAR-5, 1.56 µM (inactive); with SK-MEL-5, 19.5 µM (inactive). In addition, the GI50 in the assay with SN12C is 61.9 µM (inactive); in the assay with TK-10 it was 76.7 µM (inactive); in the assay on UO-31 it was 22.9 µM (inactive).
